Measured values taken from US20230382924A1, “MODULATORS OF CYSTIC FIBROSIS TRANSMEMBRANE CONDUCTANCE REGULATOR” (VERTEX PHARMACEUTICALS INCORPORATED, priority 2020, published 2023).
pEC50: −log10 of the molar value.

What was measured:
CFTR [1] = target: T1, CFTR (Homo sapiens, UniProt P13569); assay: Membrane Potential Dye, Enteroid Assay B; type: cell-based; settings: Table 9; for pEC50: read-out: Ent. B EC50
Procedure: Base medium (ADF+++) consisted of Advanced DMEM/Ham's F12, 2 mM Glutamax, 10 mM HEPES, […] penicillin/streptomycin.
Bath 1 Buffer consisted of 1 mM MgCl2, 160 mM NaCl, 4.5 mM KCl, 10 mM HEPES, 10 mM Glucose, 2 mM CaCl2).
Chloride Free Buffer consisted of 1 mM Magnesium Gluconate, 2 mM Calcium Gluconate, 4.5 mM Potassium Gluconate, 160 mM Sodium Gluconate, 10 mM HEPES, 10 mM Glucose.
Bath 1 Dye Solution consisted of Bath 1 Buffer, 0.04% Pluronic F127, 20 μM Methyl Oxonol, 30 μM CaCCinh-A01, 30 μM Chicago Sky Blue.
Chloride Free Dye Solution consisted of Chloride Free Buffer, 0.04% Pluronic F127, 20 μM Methyl Oxonol, 30 μM CaCCinh-A01, 30 μM Chicago Sky Blue.
3. Enteroid Cell Harvesting and Seeding
Cells were recovered in cell recovery solution, collected by centrifugation at 650 rpm for 5 min at 4° C., resuspended in TryPLE and incubated for 5 min at 37° C. Cells were then collected by centrifugation at 650 rpm for 5 min at 4° C. and resuspended in IEMM containing 10 μM ROCK inhibitor (RI).
5. Membrane Potential Dye, Enteroid Assay B
Briefly, cells were washed 5 times in Bath 1 Buffer. Bath 1 Dye Solution was added and the cells were incubated for 25 min at room temperature. Following dye incubation, cells were washed 3 times in Chloride Free Dye Solution. Chloride transport was initiated by addition of Chloride Free Dye Stimulation Solution and the fluorescence signal was read for 15 min.

CFTR [2] = target: T1, CFTR; assay: Membrane Potential Dye, Enteroid Assay A; type: cell-based; settings: for pEC50: read-out: Ent. A EC50
Method in brief: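 Signal is reported as % Activity relative to a triple CFTR modulator control (3 μM + 3 μM + 300 nM acute). Read-out: membrane potential fluorescence (20 μM methyl oxonol) monitored for 15 min after chloride-free stimulation. Dye loading took 25 min at room temperature in Bath 1 buffer containing CaCC blockers.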

T1 sequence (P13569 with tags, fused parts or gaps DEL508-508): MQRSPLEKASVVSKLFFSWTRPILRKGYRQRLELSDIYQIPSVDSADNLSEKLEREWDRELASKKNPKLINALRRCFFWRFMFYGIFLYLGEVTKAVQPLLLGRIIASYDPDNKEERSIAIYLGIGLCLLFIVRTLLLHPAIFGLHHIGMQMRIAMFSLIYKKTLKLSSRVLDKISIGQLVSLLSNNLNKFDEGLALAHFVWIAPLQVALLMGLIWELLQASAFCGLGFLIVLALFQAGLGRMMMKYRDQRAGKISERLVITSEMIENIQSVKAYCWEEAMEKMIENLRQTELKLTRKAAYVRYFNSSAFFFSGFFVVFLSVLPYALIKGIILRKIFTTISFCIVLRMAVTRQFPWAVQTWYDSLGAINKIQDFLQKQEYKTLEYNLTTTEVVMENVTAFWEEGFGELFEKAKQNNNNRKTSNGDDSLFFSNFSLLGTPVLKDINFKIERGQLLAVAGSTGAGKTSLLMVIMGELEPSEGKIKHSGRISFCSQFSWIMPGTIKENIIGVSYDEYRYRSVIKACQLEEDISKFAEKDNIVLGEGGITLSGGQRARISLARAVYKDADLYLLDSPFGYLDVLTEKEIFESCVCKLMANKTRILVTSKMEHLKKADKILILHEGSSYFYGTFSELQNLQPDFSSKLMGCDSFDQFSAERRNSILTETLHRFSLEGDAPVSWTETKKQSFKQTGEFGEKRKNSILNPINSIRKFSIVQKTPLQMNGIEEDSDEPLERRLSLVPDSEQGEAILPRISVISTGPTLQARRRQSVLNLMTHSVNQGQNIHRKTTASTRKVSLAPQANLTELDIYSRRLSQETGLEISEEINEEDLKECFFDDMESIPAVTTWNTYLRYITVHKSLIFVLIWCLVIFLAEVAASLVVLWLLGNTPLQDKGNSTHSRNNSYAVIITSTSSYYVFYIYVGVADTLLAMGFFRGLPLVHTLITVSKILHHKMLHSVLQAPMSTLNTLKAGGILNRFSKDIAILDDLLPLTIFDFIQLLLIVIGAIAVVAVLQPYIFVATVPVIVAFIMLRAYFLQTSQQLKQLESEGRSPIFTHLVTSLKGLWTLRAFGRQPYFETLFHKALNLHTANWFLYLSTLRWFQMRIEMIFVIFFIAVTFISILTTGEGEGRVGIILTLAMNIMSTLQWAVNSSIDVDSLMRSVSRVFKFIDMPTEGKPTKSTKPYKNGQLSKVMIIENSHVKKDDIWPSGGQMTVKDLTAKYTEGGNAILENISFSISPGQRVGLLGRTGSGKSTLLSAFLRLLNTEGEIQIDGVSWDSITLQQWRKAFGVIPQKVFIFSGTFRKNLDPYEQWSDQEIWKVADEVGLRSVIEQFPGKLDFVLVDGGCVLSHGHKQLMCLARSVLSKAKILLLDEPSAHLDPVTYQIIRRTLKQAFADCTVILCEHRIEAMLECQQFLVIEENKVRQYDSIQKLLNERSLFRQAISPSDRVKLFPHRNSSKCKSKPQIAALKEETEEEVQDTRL

Structure (SMILES) | pEC50 (CFTR [1]) | Ent. B Max Activity (CFTR [1]) | further results
Cc1cccc(C)c1-c1cc2nc(n1)NS(=O)(=O)c1cccc(c1)C(=O)NC[C@H](c1ccc(C[Si](C)(C)C)cc1)O2 (stereo in doubt) [Compound 126] | > 6.00 | – | –
Cc1cccc(C)c1-c1cc2nc(n1)NS(=O)(=O)c1cccc(c1)C(=O)NC[C@@H](CC(C)C)CO2 (stereo in doubt) [Compound 367] | > 6.00 | +++ (+++ is >60%) | –
O=C1N[C@@H]2CCCCC/C=C/c3ccccc3-c3cc(nc(n3)NS(=O)(=O)c3cccc1c3)OC2 [Compound 218] | > 6.00 | +++ (+++ is >60%) | –
Cc1cccc(CC2CCCCC2)c1-c1cc2nc(n1)NS(=O)(=O)c1cccc(c1)C(=O)N[C@H](CC(C)C)CO2 [Compound 387] | > 6.00 | +++ (+++ is >60%) | –
O=C1N[C@@H]2CCCCCCCc3ccccc3-c3cc(nc(n3)NS(=O)(=O)c3cccc1c3)OC2 [Compound 217] | > 6.00 | +++ (+++ is >60%) | –
Cc1cccc(C)c1-c1cc2nc(n1)NS(=O)(=O)c1cc(nn1C)C(=O)N[C@H](CC(C)(C)C)CO2 [Compound 77, (10R)-15-(2,6-Dimethylphenyl)-10-(2,2-dimethylpropyl)-5-methyl-3,3-dioxo-12-oxa-3λ^6-thia-2,5,6,9,16,17-hexazatricyclo[11.3.1.14,7]octadeca-1(17),4(18),6,13,15-pentaen-8-one] | 5.52 to 6.00 | ++ (++ is 30-60%) | –
Cc1cccc(C)c1-c1cc2nc(n1)NS(=O)(=O)c1cc(no1)C(=O)N[C@H](CC(C)(C)C)CO2 [Compound 357] | 5.52 to 6.00 | ++ (++ is 30-60%) | –
Cc1cccc(C)c1-c1cc2nc(n1)NS(=O)(=O)c1cccc(c1)C(=O)NCC(c1ccc(CCCO)cc1)O2 (stereo not drawn) [Compound 122] | 5.52 to 6.00 | +++ (+++ is >60%) | –
Cc1cccc(C)c1-c1cc2nc(n1)NS(=O)(=O)c1cccc(c1)C(=O)NC[C@H](c1ccc(C[Si](C)(C)C)cc1)O2 (stereo in doubt) [Compound 125] | > 6.00 | – | –
Cc1cccc(C=C2CCCCC2)c1-c1cc2nc(n1)NS(=O)(=O)c1cccc(c1)C(=O)N[C@H](CC(C)C)CO2 [Compound 388] | > 6.00 | ++ (++ is 30-60%) | –
C=CCCCCCC[C@@H]1COc2cc(-c3c(C)cccc3C=C)nc(n2)NS(=O)(=O)c2cccc(c2)C(=O)N1 [Compound 215] | > 6.00 | ++ (++ is 30-60%) | –
Cc1cccc(/C=C/C2CC2)c1-c1cc2nc(n1)NS(=O)(=O)c1cccc(c1)C(=O)N[C@H](CC(C)C)CO2 [Compound 53, (11R)-6-[2-[(E)-2-Cyclopropylvinyl]-6-methyl-phenyl]-11-isobutyl-2,2-dioxo-9-oxa-2λ^6-thia-3,5,12,19-tetrazatricyclo[12.3.1.14,8]nonadeca-1(18),4(19),5,7,14,16-hexaen-13-one] | > 6.00 | +++ (+++ is >60%) | –
Cc1cccc(C)c1-c1cc2nc(n1)NS(=O)(=O)c1cccc(c1)C(=O)NCc1cc(Cl)ccc1O2 [Compound 295] | > 6.00 | +++ (+++ is >60%) | –
Cc1cccc(C)c1-c1cc2nc(n1)NS(=O)(=O)c1cccc(c1)C(=O)N[C@H](CC(C)(C)O)CO2 [Compound 65] | 4.52 to 5.52 | ++ (++ is 30-60%) | –
Cc1cccc(C)c1-c1cc2nc(n1)NS(=O)(=O)c1cccc(c1)C(=O)NC[C@H](CC(C)C)CO2 (stereo in doubt) [Compound 368] | > 6.00 | ++ (++ is 30-60%) | –
Cc1cccc(C)c1-c1cc2nc(n1)NS(=O)(=O)c1cc(n(C)n1)C(=O)N[C@H](C)C(c1ccc(C(C)(C)C)cc1)O2 (stereo in doubt) [Compound 172] | > 6.00 | ++ (++ is 30-60%) | –
Cc1cccc(C)c1-c1cc2nc(n1)NS(=O)(=O)c1cc(n(C)n1)C(=O)N[C@H](CC(C)(C)C)CO2 [Compound 358] | > 6.00 | +++ (+++ is >60%) | –
Cc1cccc(C)c1-c1cc2nc(n1)NS(=O)(=O)c1cccc(c1)C(=O)N[C@H](C)[C@H](C)O2 [Compound 484] | 4.52 to 5.52 | ++ (++ is 30-60%) | –
Cc1cccc2c1-c1cc3nc(n1)NS(=O)(=O)c1cccc(c1)C(=O)N[C@H](CCCCCCCC2)CO3 [Compound 213] | > 6.00 | +++ (+++ is >60%) | –

Structure (SMILES) | pEC50 (CFTR [1]) | Ent. B Max Activity (CFTR [1]) | further results
Cc1cccc(C)c1-c1cc2nc(n1)NS(=O)(=O)c1cc(n(C)n1)C(=O)NCC(CC(C)C)(CC(C)C)CO2 [Compound 173] | 5.52 to 6.00 | ++ (++ is 30-60%) | –
Cc1cccc(C)c1-c1cc2nc(n1)NS(=O)(=O)c1cccc(c1)C(=O)N[C@H](CCC(C)(C)O)CO2 [Compound 67, (11R)-6-(2,6-Dimethylphenyl)-11-(3-hydroxy-3-methylbutyl)-2,2-dioxo-9-oxa-2λ^6-thia-3,5,12,19-tetrazatricyclo[12.3.1.14,8]nonadeca-1(18),4(19),5,7,14,16-hexaen-13-one] | 4.52 to 5.52 | + (+ is <30%) | –
Cc1cccc(C)c1-c1cc2nc(n1)NS(=O)(=O)c1cccc(c1)C(=O)NC[C@H](c1ccc(CC[Si](C)(C)C)cc1)O2 (stereo in doubt) [Compound 124] | > 6.00 | – | –
Cc1cccc(CCC(C)C)c1-c1cc2nc(n1)NS(=O)(=O)c1cccc(c1)C(=O)N[C@H](CC(C)C)CO2 [Compound 389] | > 6.00 | +++ (+++ is >60%) | –
O=C1N[C@@H]2CCCCCC/C=C/c3ccccc3-c3cc(nc(n3)NS(=O)(=O)c3cccc1c3)OC2 [Compound 36, (10E,18R)-30-oxa-26λ^6-thia-19,27,29,32-tetraazapentacyclo[16.11.2.13,28.121,25.04,9]tritriaconta-1,3(32),4(9),5,7,10,21(33),22,24,28-decaene-20,26,26-trione] | > 6.00 | +++ (+++ is >60%) | –
Cc1cccc(C)c1-c1cc2nc(n1)NS(=O)(=O)c1cccc(c1)C(=O)NCC(c1ccc(CCC(C)(C)C)cc1)O2 (stereo not drawn) [Compound 24, 10-[4-(3,3-dimethylbutyl)phenyl]-6-(2,6-dimethylphenyl)-2,2-dioxo-9-oxa-2λ^6-thia-3,5,12,19-tetrazatricyclo[12.3.1.14,8]nonadeca-1(18),4(19),5,7,14,16-hexaen-13-one] | – | – | Ent. A Max Activity (CFTR [2]; Table 9): +++ (+++ is >60%); pEC50 (CFTR [2]; Table 9): > 6.00
Cc1cccc(C)c1-c1cc2nc(n1)NS(=O)(=O)c1cccc(c1)C(=O)NCC(c1ccccc1C(C)(C)C)O2 (stereo not drawn) [Compound 278] | – | – | pEC50 (CFTR [2]; Table 8): > 6.00
CCC(C)(C)C(=O)N1CC[C@H]2Oc3cc(-c4c(C)cccc4C)nc(n3)NS(=O)(=O)c3cccc(c3)C(=O)N[C@@H]2C1 [Compound 370] | – | – | Ent. A Max Activity (CFTR [2]; Table 9): +++ (+++ is >60%); pEC50 (CFTR [2]; Table 9): 5.52 to 6.00
Cc1cccc(C)c1-c1cc2nc(n1)NS(=O)(=O)c1cccc(c1)C(=O)NC[C@@H](c1ccc(C(C)(C)C(F)(F)F)cc1)O2 [Compound 262] | – | – | Ent. A Max Activity (CFTR [2]; Table 9): +++ (+++ is >60%); pEC50 (CFTR [2]; Table 9): > 6.00
Cc1cccc(C)c1-c1cc2nc(n1)NS(=O)(=O)c1cccc(c1)C(=O)NCC(c1ccc3c(c1)C(C)(C)CCC3(C)C)O2 (stereo not drawn) [Compound 117] | – | – | Ent. A Max Activity (CFTR [2]; Table 8): +++ (+++ is >60%); pEC50 (CFTR [2]; Table 8): > 6.00
Cc1cccc(C)c1-c1cc2cc(n1)NS(=O)(=O)c1cccc(c1)C(=O)N[C@H](CC(C)C)CO2 [Compound 296] | – | – | Ent. A Max Activity (CFTR [2]; Table 8): +++ (+++ is >60%); pEC50 (CFTR [2]; Table 8): > 6.00
Cc1cccc(C)c1-c1cc2nc(n1)NS(=O)(=O)c1cc(cc(C3CCCCC3)c1)C(=O)N[C@H](CC(C)C)CO2 [Compound 137] | – | – | Ent. A Max Activity (CFTR [2]; Table 8): + (+ is <30%)
CC(C)C[C@@H]1COc2cc(C3=CCC(C)(C)CC3)nc(n2)NS(=O)(=O)c2cccc(c2)C(=O)N1 [Compound 323] | – | – | Ent. A Max Activity (CFTR [2]; Enteroid Assay A): ++ (++ is 30-60%); pEC50 (CFTR [2]; Enteroid Assay A): 5.52 to 6.00
CC(C)C[C@@H]1COc2cc(C3C(C)CCCC3C)nc(n2)NS(=O)(=O)c2cccc(c2)C(=O)N1 (stereo partly drawn) [Compound 301] | – | – | pEC50 (CFTR [2]; Table 8): 4.52 to 5.52
Cc1cccc(C)c1-c1cc2nc(n1)NS(=O)(=O)c1cccc(c1)C(=O)N[C@H](CC(C)C)C(C1CC1)O2 (stereo partly drawn) [Compound 238] | – | – | Ent. A Max Activity (CFTR [2]; Table 8): +++ (+++ is >60%); pEC50 (CFTR [2]; Table 8): 5.52 to 6.00
CC(C)C[C@@H]1COc2cc(C3=CCCC3)nc(n2)NS(=O)(=O)c2cccc(c2)C(=O)N1 [Compound 321] | – | – | pEC50 (CFTR [2]; Enteroid Assay A): 4.52 to 5.52
Cc1cccc(C)c1-c1cc2nc(n1)NS(=O)(=O)c1cccc(c1)C(=O)NC1CC(CN(CCC3(C(F)(F)F)CC3)C1)O2 (stereo not drawn) [Compound 194] | – | – | pEC50 (CFTR [2]; Enteroid Assay A): 5.52 to 6.00
Cc1cccc(C)c1-c1cc2nc(n1)NS(=O)(=O)c1cccc(c1)C(=O)N[C@@H](C(CC(C)C)c1ccccc1)CO2 (stereo in doubt) [Compound 180] | – | – | Ent. A Max Activity (CFTR [2]; Table 9): ++ (++ is 30-60%); pEC50 (CFTR [2]; Table 9): > 6.00
